# Experimental data: patent US10195156B2, “Compounds and compositions for intracellular delivery of agents” (ModernaTX, Inc., priority 2015, dated 2019)
# Legend:
# [1] = system: modified luciferase expression; test: Expression of Luc in different organs (liver, lung, spleen, femur) 6 hours after intravenous administration; type: in vivo; conditions: i.v., 0.5 mpk; for Total Flux Femur / Total Flux Liver / Total Flux Lung / Total Flux Spleen: Table 20-3, mice
# Method: The efficacy of the nanoparticle compositions presented in Tables 1, 1a, 17-1, 19-1, 20-1 and 21-1 was further evaluated by measuring the expression of modified luciferase in the liver, lung, spleen, and femur upon administration of a given composition. Formulations were administered intravenously to mice (n=3) at a dosage of 0.5 mpk and bioluminescence measured after 6 hours. The standard MC3 formulation and a PBS control were also tested.
# [2] = Particle size and polydispersity index of nanoparticle compositions (Zetasizer Nano ZS); type: physicochemical; conditions: for PDI / Size (nm): Table 20-1, rows without footnote mark; for particle size, rank within the named table (in words): comparison amongst compositions
# Procedure, shortened: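 Nanoparticle compositions are diluted in 1×PBS, then size and polydispersity index are read on a Zetasizer Nano ZS instrument.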
# [3] = system: IL-6; test: Cytokine production induced by sample formulations: IL-6; type: in vivo; conditions: mice, i.v., 0.5 mpk, 6 hours; for IL-6: Table 20-4, formula (20-I), in pg/mL (unit assumed)
# Procedure, shortened: (§1)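 Mice received nanoparticle formulations intravenously at 0.5 mpk, with standard MC3 formulation and PBS as controls. Cytokine concentrations were measured 6 hours after dosing.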
# [4] = system: IP-10; test: Cytokine production induced by sample formulations: IP-10; type: in vivo; conditions: Table 20-4, formula (20-I); mice, i.v., 0.5 mpk, 6 hours; in pg/mL (unit assumed)
# Procedure, shortened: as §1
# [5] = system: luciferase (Luc) mRNA expression; test: Expression of Luc induced by sample formulations, whole-body bioluminescence after intravenous administration; type: in vivo; conditions: mice, i.v., 0.5 mg/kg; for Total Flux 3 hours / Total Flux 6 hours / Total Flux 24 hours: Table 20-2
# Procedure, shortened: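 Mice (n=6) dosed intravenously with Luc mRNA nanoparticle formulations at 0.5 mg/kg. Whole-body bioluminescence measured at 3, 6 and 24 h. Standard MC3 formulation and PBS control run alongside.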
# [6] = pKa of nanoparticle compositions; type: physicochemical; conditions: Table 20-1; rows without footnote mark
# [7] = Encapsulation efficiency of RNA (QUANT-IT RIBOGREEN RNA assay); type: physicochemical; conditions: Table 20-1; rows without footnote mark
# Procedure, shortened: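 Nanoparticle samples diluted to ~5 μg/mL RNA in TE buffer (pH 7.5), incubated with or without 2% Triton X-100 solution at 37 °C for 15 min, then RiboGreen added. Fluorescence read at ~480/520 nm, blank-subtracted; free RNA % = intact over Triton-disrupted signal.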
Structure (SMILES),Total Flux Femur [1],Total Flux Liver ([1]; liver),Total Flux Lung [1],Total Flux Spleen [1],PDI [2],Size (nm) [2],IL-6 [3],IP-10 [4],Total Flux 3 hours ([5]; 3 hours),Total Flux 6 hours [5],Total Flux 24 hours [5],pKa [6],EE (%) [7],"total flux in the liver, rank within the named table (in words) ([1]; mice, liver)","total flux after 3 hours, rank within the named table (in words) ([5]; 3 hours)","particle size, rank within the named table (in words) [2]","IL-6 induction, rank within the named table (in words) [3]"
"CCCCCCCCCCCCN(CCCCCCCCCCCC)CCN(CCO)CCCCCC(=O)OCCCCC [Compound 20-3, Pentyl 6-((2-(didodecylamino)ethyl)(2-hydroxyethyl)amino)hexanoate]",1.73E+06,4.33E+08,6.08E+05,6.35E+06,0.110,76.4 nm,105.8,671.5,5.35E+09,3.00E+09,6.49E+07,6.82,95.8%,,,,
"CCCCCCCOC(=O)CCCCCN(CCO)CCN(CCCCCC(=O)OCCCCCCC)CCCCCC(=O)OCCCCCCC [Compound 20-5, Diheptyl 6,6′-((2-((6-(heptyloxy)-6-oxohexyl)(2hydroxyethyl)amino)ethyl)azanediyl)dihexanoate]",9.53E+04,2.67E+06,5.80E+04,3.40E+06,0.210,119.3 nm,140.8,2012.3,6.07E+07,1.99E+07,2.07E+06,6.79,78.1%,,,,
"CCCCCCCCCCCCN(CCO)CCN(CCCCCCCCCCCC)CCCCCC(=O)OCCCCCCC [Compound 20-7, Heptyl 6-(dodecyl(2-(dodecyl(2-hydroxyethyl)amino)ethyl)amino)hexanoate]",,1.00E+09,1.38E+07,4.58E+07,0.170,73.6 nm,24.5,696.3,1.22E+10,8.94E+09,2.65E+08,6.66,92.4%,highest,highest after 3 hours,,
"CCCCCCCCCCCCN(CCCCCCCCCCCC)CCN(CCO)CCCCCCCC(=O)OCCCCCCCCC [Compound 20-8, Nonyl 8-((2-(didodecylamino)ethyl)(2-hydroxyethyl)amino)octanoate]",1.62E+06,8.09E+08,3.45E+06,2.70E+07,0.141,67.9 nm,18.4,134.0,2.76E+09,4.37E+09,1.30E+08,6.43,96.6%,,,smallest particles,
"CCCCCCCCCCCCN(CCCCCCCCCCCC)CCN(CCO)CCCCCCCC(=O)OC(CCCCCCCC)CCCCCCCC [Compound 20-9, Heptadecan-9-yl 8-((2-(didodecylamino)ethyl)(2-hydroxyethyl)amino)octanoate]",2.89E+05,1.57E+08,1.30E+06,5.11E+06,0.130,64.5 nm,152.1,271.1,3.65E+08,6.91E+08,4.81E+07,6.22,95.9%,,,smallest particles,
"CCCCCCCCCCCCN(CCO)CCN(CCCCCCCC(=O)OCCCCCCCCC)CCCCCCCC(=O)OCCCCCCCCC [Compound 20-10, Dinonyl 8,8′-((2-(dodecyl(2-hydroxyethyl)amino)ethyl)azanediyl)dioctanoate]",3.09E+06,4.40E+08,5.01E+06,9.67E+07,0.130,85.7 nm,739.0,2356.8,5.05E+09,2.16E+09,2.54E+08,6.42,91.4%,,,,highest
